Measurements as given in the NIST ThermoML archive (doi:10.1016/j.jct.2014.07.001).
Numbers after ± are expanded uncertainties.

Assay: xn = mol fraction of the nth substance listed
Settings: Drop volume

CCCC[n+]1ccc(C)cc1.F[B-](F)(F)F [1-butyl-4-methylpyridinium tetrafluoroborate] + CCO
surface tension liquid-gas [mN/m]
Settings | 293.15 K | 303.15 K | 313.15 K | 323.15 K
x1 = 0.0497 | 22.7 ± 0.26 | 22.02 ± 0.25 | 21.32 ± 0.25 | 20.63 ± 0.24
x1 = 0.0993 | 23.17 ± 0.27 | 22.6 ± 0.26 | 22.02 ± 0.26 | 21.44 ± 0.25
x1 = 0.1995 | 24.47 ± 0.28 | 24.08 ± 0.28 | 23.68 ± 0.27 | 23.27 ± 0.27
x1 = 0.2946 | 25.95 ± 0.3 | 25.68 ± 0.3 | 25.41 ± 0.29 | 25.14 ± 0.29
x1 = 0.36 | 27.2 ± 0.31 | 26.98 ± 0.31 | 26.77 ± 0.31 | 26.55 ± 0.31
x1 = 0.4269 | 28.57 ± 0.33 | 28.38 ± 0.33 | 28.22 ± 0.32 | 28.04 ± 0.32
x1 = 0.4882 | 29.99 ± 0.34 | 29.81 ± 0.34 | 29.65 ± 0.34 | 29.49 ± 0.34
x1 = 0.589 | 32.66 ± 0.38 | 32.44 ± 0.37 | 32.25 ± 0.37 | 32.05 ± 0.37
x1 = 0.7001 | 35.92 ± 0.42 | 35.61 ± 0.41 | 35.34 ± 0.41 | 35.05 ± 0.41
x1 = 0.7895 | 38.75 ± 0.45 | 38.33 ± 0.45 | 37.95 ± 0.44 | 37.57 ± 0.44
x1 = 0.8345 | 40.28 ± 0.47 | 39.79 ± 0.47 | 39.35 ± 0.46 | 38.89 ± 0.46
x1 = 0.8805 | 41.85 ± 0.49 | 41.29 ± 0.49 | 40.77 ± 0.48 | 40.25 ± 0.47
x1 = 1 | 45.82 ± 0.54 | 45.09 ± 0.54 | 44.41 ± 0.53 | 43.71 ± 0.52

CCO [ethanol] + CCCC[n+]1ccc(C)cc1.F[B-](F)(F)F
x2 = 0
Settings | surface tension liquid-gas [mN/m]
293.15 K | 22.28 ± 0.26
303.15 K | 21.49 ± 0.25
313.15 K | 20.66 ± 0.24
323.15 K | 19.84 ± 0.23

CO [methanol] + CCCC[n+]1ccc(C)cc1.F[B-](F)(F)F
x2 = 0
Settings | surface tension liquid-gas [mN/m]
293.15 K | 22.6 ± 0.26
303.15 K | 21.81 ± 0.25
313.15 K | 20.93 ± 0.24
323.15 K | 20.05 ± 0.23

CCO [ethanol] + CCCC[n+]1cccc(C)c1.F[B-](F)(F)F
x2 = 0
Settings | surface tension liquid-gas [mN/m]
293.15 K | 22.28 ± 0.26
303.15 K | 21.49 ± 0.25
313.15 K | 20.66 ± 0.24
323.15 K | 19.84 ± 0.23

CO [methanol] + CCCC[n+]1cccc(C)c1.F[B-](F)(F)F
x2 = 0
Settings | surface tension liquid-gas [mN/m]
293.15 K | 22.6 ± 0.26
303.15 K | 21.81 ± 0.25
313.15 K | 20.93 ± 0.24
323.15 K | 20.05 ± 0.23
